The text below walks through data of US20160340322A1 (NISSAN CHEMICAL INDUSTRIES, LTD., priority 2013, published 2016).

SMILES strings stand for the structures.

In the assay the target is T1, Human T-type calcium channel (Cav 3.2) (Homo sapiens, UniProt O95180).
T1 construct: Edward Perez-Reyes, University of Virginia, USA; host or cells: HEK293
T1 sequence (O95180 whole entry): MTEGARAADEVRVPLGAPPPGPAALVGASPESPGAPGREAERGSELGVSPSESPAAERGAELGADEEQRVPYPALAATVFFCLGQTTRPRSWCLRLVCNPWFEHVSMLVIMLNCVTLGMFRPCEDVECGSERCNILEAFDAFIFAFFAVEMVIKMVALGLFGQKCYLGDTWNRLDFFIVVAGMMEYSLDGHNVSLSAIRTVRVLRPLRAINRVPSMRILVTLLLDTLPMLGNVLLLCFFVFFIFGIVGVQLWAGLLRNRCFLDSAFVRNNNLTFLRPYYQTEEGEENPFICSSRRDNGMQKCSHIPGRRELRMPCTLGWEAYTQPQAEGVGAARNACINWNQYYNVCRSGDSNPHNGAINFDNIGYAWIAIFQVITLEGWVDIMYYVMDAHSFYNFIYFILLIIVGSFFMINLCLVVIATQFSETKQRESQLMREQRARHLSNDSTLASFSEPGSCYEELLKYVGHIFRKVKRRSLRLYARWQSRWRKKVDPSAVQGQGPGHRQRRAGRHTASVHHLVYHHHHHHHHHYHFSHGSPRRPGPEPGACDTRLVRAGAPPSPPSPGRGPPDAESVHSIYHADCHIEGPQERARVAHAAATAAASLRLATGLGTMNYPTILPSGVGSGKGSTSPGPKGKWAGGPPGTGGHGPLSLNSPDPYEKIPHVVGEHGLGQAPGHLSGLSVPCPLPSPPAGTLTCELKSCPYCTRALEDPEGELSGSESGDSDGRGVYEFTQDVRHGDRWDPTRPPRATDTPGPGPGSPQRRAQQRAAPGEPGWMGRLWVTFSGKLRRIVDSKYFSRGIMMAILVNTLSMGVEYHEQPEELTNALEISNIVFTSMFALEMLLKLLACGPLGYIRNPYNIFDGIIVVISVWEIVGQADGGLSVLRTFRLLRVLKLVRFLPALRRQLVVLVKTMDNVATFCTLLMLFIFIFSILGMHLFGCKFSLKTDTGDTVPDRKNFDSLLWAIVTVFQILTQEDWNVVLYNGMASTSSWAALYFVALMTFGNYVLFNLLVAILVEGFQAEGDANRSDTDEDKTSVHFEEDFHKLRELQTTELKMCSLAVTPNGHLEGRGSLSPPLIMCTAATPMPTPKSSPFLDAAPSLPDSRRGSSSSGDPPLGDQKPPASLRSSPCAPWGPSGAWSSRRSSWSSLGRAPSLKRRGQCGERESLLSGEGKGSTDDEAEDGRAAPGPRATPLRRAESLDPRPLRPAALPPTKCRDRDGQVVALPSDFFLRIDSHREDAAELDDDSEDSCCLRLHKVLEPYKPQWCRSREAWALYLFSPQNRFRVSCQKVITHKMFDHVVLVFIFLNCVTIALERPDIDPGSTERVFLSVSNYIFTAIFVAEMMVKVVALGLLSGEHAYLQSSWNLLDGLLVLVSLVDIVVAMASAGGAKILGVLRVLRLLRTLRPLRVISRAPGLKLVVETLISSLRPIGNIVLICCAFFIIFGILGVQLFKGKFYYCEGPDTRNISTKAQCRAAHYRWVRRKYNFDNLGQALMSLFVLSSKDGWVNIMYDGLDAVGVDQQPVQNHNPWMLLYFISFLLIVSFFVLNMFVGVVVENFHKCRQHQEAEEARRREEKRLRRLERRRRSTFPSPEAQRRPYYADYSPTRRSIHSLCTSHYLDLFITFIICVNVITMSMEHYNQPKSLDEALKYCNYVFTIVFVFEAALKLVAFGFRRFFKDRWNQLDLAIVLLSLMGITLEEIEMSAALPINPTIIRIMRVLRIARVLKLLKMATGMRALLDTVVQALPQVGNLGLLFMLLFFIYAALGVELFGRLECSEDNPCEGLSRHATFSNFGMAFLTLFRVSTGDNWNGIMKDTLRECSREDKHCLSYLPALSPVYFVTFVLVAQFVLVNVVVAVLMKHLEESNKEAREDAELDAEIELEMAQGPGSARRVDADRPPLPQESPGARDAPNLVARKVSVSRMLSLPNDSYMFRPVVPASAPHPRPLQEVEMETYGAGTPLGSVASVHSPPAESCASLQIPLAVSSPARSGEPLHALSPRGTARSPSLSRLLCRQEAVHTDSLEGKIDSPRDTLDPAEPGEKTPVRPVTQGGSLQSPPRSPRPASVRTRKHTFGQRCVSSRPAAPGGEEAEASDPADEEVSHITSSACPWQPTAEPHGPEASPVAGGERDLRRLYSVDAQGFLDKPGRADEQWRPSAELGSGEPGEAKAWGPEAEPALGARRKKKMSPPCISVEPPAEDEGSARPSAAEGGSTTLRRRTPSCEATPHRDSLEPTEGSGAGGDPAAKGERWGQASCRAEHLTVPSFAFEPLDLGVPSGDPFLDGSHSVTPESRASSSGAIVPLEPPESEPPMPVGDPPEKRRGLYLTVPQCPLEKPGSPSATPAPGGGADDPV
In words: Calcium Influx Inhibition Assay. Particulars: human T-type calcium channel (Cav 3.2) expressing HEK293 cells; FLIPR Calcium 4 fluorescence; 30 min compound incubation; read-out: T-type calcium channel inhibition concentration IC50. It is filed as cell-based. As to the method: 1. Calcium Influx Inhibition Assay Human T-type calcium channel (Cav 3.2) expressing HEK293 cells were introduced from Prof. Edward Perez-Reyes, University of Virginia, USA. The calcium-sensitive fluorescent dye used was FLIPR Calcium 4 Assay Kit (Molecular Devices). To a black 96-well plate with a clear bottom coated with type I collagen, the human T-type calcium channel (Cav 3.2) expressing HEK293 cells were seeded and cultured overnight, and the culture medium was removed. A solution of the calcium-sensitive fluorescent dye was added, and the resultant plate was incubated at 37° C. in an atmosphere of 5% carbon dioxide for 30 minutes. To the plate, a diluted solution of a compound was added, and subjected to further incubation at 37° C. in an atmosphere of 5% carbon dioxide for 30 minutes. While fluorescence was continuously analyzed from the bottom with a FlexStation 3 (Molecular Devices), a calcium solution was added. […] Based on the rise value in the fluorescence from the base line, the inhibition percentage was calculated. The logarithms of compound concentrations were plotted with respect to the inhibition activities to obtain an IC50 value.
As to `O=c1nc(N2Cc3ccc(OC(F)F)cc3C(O)C2)cnn1Cc1ccc(C(F)(F)F)s1` (stereo not drawn), the IC50 was 64 nM.
On to `O=c1nc(N2CCN(c3ccc(F)cc3)CC2)cnn1Cc1ccc(Cl)cc1` [Synthesis Example 1, 2-(4-Chlorobenzyl)-5-[4-(4-fluorophenyl)piperazin-1-yl]-1,2,4-triazin-3(2H)-one], for which the IC50 was determined as 220 nM.
With `CCCCCCOc1ccc(Cn2ncc(N3CCN(c4ccc(F)cc4)CC3)nc2=O)cc1` [Synthesis Example 2, 5-[4-(4-Fluorophenyl)piperazin-1-yl]-2-[4-(hexyloxy)benzyl]-1,2,4-triazin-3(2H)-one] the figure was 38 nM; with `O=c1nc(N2CCN(c3ccc(F)cc3)CC2)cnn1Cc1ccc(OCc2ccc(Cl)cc2)cc1` [Synthesis Example 3, 2-{4-[(4-Chlorobenzyl)oxy]benzyl}-5-[4-(4-fluorophenyl)piperazin-1-yl]-1,2,4-triazin-3(2H)-one], 200 nM; with `O=c1nc(N2CCN(c3ccc(F)cc3)CC2)cnn1Cc1ccc(OCc2ccc(F)cc2)cc1` [Synthesis Example 4, 2-{4-[(4-Fluorobenzyl)oxy]benzyl}-5-[4-(4-fluorophenyl)piperazin-1-yl]-1,2,4-triazin-3(2H)-one], 35 nM.
As to `O=c1nc(N2CCN(c3ccc(F)cc3)CC2)cnn1Cc1ccc(C(F)(F)F)s1` [Synthesis Example 5, 5-[4-(4-Fluorophenyl)piperazin-1-yl]-2-{[5-(trifluoromethyl)thiophen-2-yl]methyl}-1,2,4-triazin-3(2H)-one], the IC50 was 27 nM.
For `O=c1nc(N2CC=C(c3ccc(F)cc3)CC2)cnn1Cc1ccc(C(F)(F)F)s1` [Synthesis Example 6, 5-[4-(4-Fluorophenyl)-5,6-dihydropyridine-1(2H)-yl]-2-{[5-(trifluoromethyl)thiophen-2-yl]methyl}-1,2,4-triazin-3(2H)-one] the value was 24 nM; for `O=c1nc(N2CC=C(c3ccc(F)cc3)[C@@H](O)C2)cnn1Cc1ccc(C(F)(F)F)s1` [Synthesis Example 7, (R)-5-[4-(4-Fluorophenyl)-5-hydroxy-5,6-dihydropyridin-1(2H)-yl]-2-{[5-(trifluoromethyl)thiophene-2-yl]methyl}-1,2,4-triazin-3(2H)-one], 6 nM; for `Cc1ccc(N2CCN(c3cnn(Cc4ccc(C(F)(F)F)s4)c(=O)n3)CC2)nc1` [Synthesis Example 8, 5-[4-(5-methylpyridin-2-yl)piperazin-1-yl]-2-{[5-(trifluoromethyl)thiophene-2-yl]methyl}-1,2,4-triazin-3(2H)-one], 210 nM.
For `O=c1nc(N2CCc3c([nH]c4cc(F)ccc34)C2)cnn1Cc1ccc(C(F)(F)F)s1` [Synthesis Example 9, 5-(7-Fluoro-3,4-dihydro-1H-pyrido[3,4-b]indol-2(9H)-yl)-2-{[5-(trifluoromethyl)thiophen-2-yl]methyl}-1,2,4-triazin-3(2H)-one] the value was 17 nM; for `O=c1nc(N2CCN(c3ccc(F)cc3)CC2)cnn1Cc1cnc(C(F)(F)F)s1` [Synthesis Example 10, 5-[4-(4-Fluorophenyl)piperazin-1-yl]-2-{[2-(trifluoromethyl)thiazol-5-yl]methyl}-1,2,4-triazin-3(2H)-one], 490 nM; for `O=c1nc(N2CC=C(c3ccc(F)cc3)[C@@H](O)C2)cnn1Cc1cnc(C(F)(F)F)s1` [Synthesis Example 11, (R)-5-[4-(4-Fluorophenyl)-5-hydroxy-5,6-dihydropyridin-1(2H)-yl]-2-{[2-(trifluoromethyl)thiazol-5-yl]methyl}-1,2,4-triazin-3(2H)-one], 30 nM.
Turning to `Cc1cc(C2=CCN(c3cnn(Cc4cnc(C(F)(F)F)s4)c(=O)n3)C[C@@H]2O)cs1` [Synthesis Example 12, (R)-5-[5-Hydroxy-4-(5-methylthiophen-3-yl)-5,6-dihydropyridin-1(2H)-yl]-2-{[2-(trifluoromethyl)thiazol-5-yl]methyl}-1,2,4-triazin-3(2H)-one], the IC50 was 26 nM.
For `Cc1ccc(N2CCN(c3cnn(Cc4cnc(C(F)(F)F)s4)c(=O)n3)CC2)nc1` [Synthesis Example 13, 5-[4-(5-Methylpyridin-2-yl)piperazin-1-yl]-2-{[2-(trifluoromethyl)thiazol-5-yl]methyl}-1,2,4-triazine-3(2H)-one] the value was 6100 nM.
With `O=c1nc(N2CCc3c([nH]c4cc(F)ccc34)C2)cnn1Cc1cnc(C(F)(F)F)s1` [Synthesis Example 14, 5-(7-Fluoro-3,4-dihydro-1H-pyrido[3,4-b]indol-2(9H)-yl)-2-{[2-(trifluoromethyl)thiazol-5-yl]methyl}-1,2,4-triazin-3(2H)-one], the IC50 was 39 nM.
For the compound `Cc1cc(C2=CCN(c3cnn(Cc4ccc(C(F)(F)F)s4)c(=O)n3)C[C@@H]2O)cs1` [Synthesis Example 15, (R)-5-[5-Hydroxy-4-(5-methylthiophen-3-yl)-5,6-dihydropyridin-1(2H)-yl]-2-{[5-(trifluoromethyl)thiophen-2-yl]methyl}-1,2,4-triazin-3(2H)-one], the IC50 was 1 nM.
`CCOc1ccc2c(c1)C(O)CN(c1cnn(Cc3ccc(C(F)(F)F)s3)c(=O)n1)C2` (stereo not drawn) [Synthesis Example 16]: the IC50 was determined as 180 nM.
For `Cc1csc(C2=CCN(c3cnn(Cc4cnc(C(F)(F)F)s4)c(=O)n3)C[C@@H]2O)c1` [Synthesis Example 17] the value was 200 nM; for `CCOc1ccc2c(c1)C(O)CN(c1cnn(Cc3cnc(C(F)(F)F)s3)c(=O)n1)C2` (stereo not drawn) [Synthesis Example 18, 5-[6-Ethoxy-4-hydroxy-3,4-dihydroisoquinolin-2(1H)-yl]-2-{[2-(trifluoromethyl)thiazol-5-yl]methyl}-1,2,4-triazin-3(2H)-one], 2900 nM; for `COc1ccc2c(c1)CCN(c1cnn(Cc3cnc(C(F)(F)F)s3)c(=O)n1)C2C` (stereo not drawn) [Synthesis Example 19], 2200 nM.
Take `O=c1nc(N2CCN(c3ccc(Cl)cc3)CC2)cnn1Cc1cnc(C(F)(F)F)s1` [Synthesis Example 20, 5-[4-(4-Chlorophenyl)piperazin-1-yl]-2-{[2-(trifluoromethyl)thiazol-5-yl]methyl}-1,2,4-triazin-3(2H)-one]: the IC50 was 190 nM.
For `O=c1nc(N2CCN(c3ccc(F)c(Cl)c3)CC2)cnn1Cc1cnc(C(F)(F)F)s1` [Synthesis Example 21, 5-[4-(3-Chloro-4-fluorophenyl)piperazin-1-yl]-2-{[2-(trifluoromethyl)thiazol-5-yl]methyl}-1,2,4-triazin-3(2H)-one] the value was 230 nM.
For `O=c1nc(N2CC=C(c3ccc(F)cc3)C(F)C2)cnn1Cc1cnc(C(F)(F)F)s1` (stereo not drawn) [Synthesis Example 22, 5-[5-Fluoro-4-(4-fluorophenyl)-5,6-dihydropyridin-(2H)-yl]-2-{[2-(trifluoromethyl)thiazol-5-yl]methyl}-1,2,4-triazin-3(2H)-one] the value was 120 nM.
For `Cc1cc(N2CCN(c3cnn(Cc4cnc(C(F)(F)F)s4)c(=O)n3)CC2)cs1` [Synthesis Example 23, 5-[4-(5-Methylthiophen-3-yl)piperazin-1-yl]-2-{[2-(trifluoromethyl)thiazol-5-yl]methyl}-1,2,4-triazin-3(2H)-one] the value was 670 nM.
